Key:
H+/K+-ATPase = target: T1, H+/K+-ATPase (Sus scrofa, UniProt P19156); assay: Proton pump inhibitory action: activity of inhibiting H+/K+-ATPase (at pH 1); assay type: biochemical; conditions: pig gastric mucosa enzyme sample; test compounds pretreated in hydrochloric acid solution pH 1 (50% DMSO) for 15 minutes; read-out: Proton pump inhibitory action [IC50 (μmol/L)]
T1 construct: The mucous membrane layer was homogenized in Tris-HCl buffer; from tissue; host or cells: pig stomach body, mucous membrane layer, membrane fraction from a sucrose interface
T1 sequence (P19156 2-1034 limits assumed): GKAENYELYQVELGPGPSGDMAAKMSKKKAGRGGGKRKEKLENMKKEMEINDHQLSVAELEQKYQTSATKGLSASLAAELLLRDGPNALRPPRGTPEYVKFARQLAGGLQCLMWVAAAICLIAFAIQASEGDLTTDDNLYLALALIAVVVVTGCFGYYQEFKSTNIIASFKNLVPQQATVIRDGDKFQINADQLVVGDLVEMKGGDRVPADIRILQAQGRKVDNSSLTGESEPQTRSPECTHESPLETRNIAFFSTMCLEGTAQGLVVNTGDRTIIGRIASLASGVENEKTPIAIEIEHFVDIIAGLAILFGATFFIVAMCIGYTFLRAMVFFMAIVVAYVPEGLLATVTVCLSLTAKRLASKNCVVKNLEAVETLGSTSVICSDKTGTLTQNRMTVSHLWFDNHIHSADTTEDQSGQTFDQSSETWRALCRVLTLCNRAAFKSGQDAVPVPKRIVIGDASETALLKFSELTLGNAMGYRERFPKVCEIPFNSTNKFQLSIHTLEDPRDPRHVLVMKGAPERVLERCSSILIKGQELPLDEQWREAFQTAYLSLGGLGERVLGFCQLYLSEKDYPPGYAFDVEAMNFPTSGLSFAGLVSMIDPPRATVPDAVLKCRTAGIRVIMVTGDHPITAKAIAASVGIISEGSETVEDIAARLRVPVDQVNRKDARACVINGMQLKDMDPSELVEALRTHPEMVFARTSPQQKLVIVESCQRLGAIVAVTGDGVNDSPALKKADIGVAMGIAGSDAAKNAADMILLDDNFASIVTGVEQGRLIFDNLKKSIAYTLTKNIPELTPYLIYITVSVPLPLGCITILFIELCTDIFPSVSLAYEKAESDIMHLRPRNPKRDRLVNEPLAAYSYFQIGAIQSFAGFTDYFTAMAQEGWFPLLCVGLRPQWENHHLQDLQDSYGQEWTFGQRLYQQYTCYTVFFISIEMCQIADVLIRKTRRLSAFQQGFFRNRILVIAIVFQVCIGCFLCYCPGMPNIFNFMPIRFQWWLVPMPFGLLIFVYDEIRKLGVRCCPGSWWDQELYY
T1 sequence (P18434 whole entry partner): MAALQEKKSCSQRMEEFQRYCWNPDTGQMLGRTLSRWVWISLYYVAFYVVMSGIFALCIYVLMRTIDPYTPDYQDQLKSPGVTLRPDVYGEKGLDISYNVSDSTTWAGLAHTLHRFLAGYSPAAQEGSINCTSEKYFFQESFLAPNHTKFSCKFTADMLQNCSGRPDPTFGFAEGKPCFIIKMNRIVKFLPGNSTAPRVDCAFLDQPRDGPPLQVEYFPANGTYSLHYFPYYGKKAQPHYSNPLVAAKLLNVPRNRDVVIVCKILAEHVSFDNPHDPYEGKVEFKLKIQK
Text: (Proton Pump Inhibitory Action)
(1) Preparation of Enzyme Sample (H^+/K^+-ATPase)
The stomach body removed from a pig, which had been stored in a frozen state, was separated into a muscle layer and a mucous membrane layer. The mucous membrane layer was homogenized in Tris-HCl buffer (20 mmol/L, pH 7.4) having a volume 5 times that of the layer and containing sucrose (0.25 mol/L) and EGTA (1 mmol/L) (hereinafter the mixture is referred to as Tris-HCl buffer) in a mixer. The homogenate was subjected to centrifugation (9,000×g, 30 minutes). The supernatant was softly placed on 8 mL Tris-HCl buffer (20 mmol/L, pH 7.4) containing 30% sucrose and 1 mmol/L EGTA. The mixture was subjected to ultracentrifugation at 100,000×g for 60 minutes. The interface fraction obtained through centrifugation was subjected to centrifugation (113,000×g, 60 minutes) twice. Pellet was suspended in Tris-HCl buffer, and the suspension was homogenized at low speed. The resultant homogenate served as an enzyme sample of interest and was stored at −80° C. The protein content of the sample was quantitated through use of a BCA protein assay reagent in accordance with a method described by Smith et al. (Anal. Biochem., 150, 76-85 (1985)). All these steps were performed under cooling with an ice bath.
(2) Activity of inhibiting H^+/K^+-ATPase (at pH 1)
Activity of inhibiting H^+/K^+-ATPase was measured in accordance with a method described in Biochem. Biophys. Res. Commun., 40, 880-886 (1970). Specifically, ATP was employed as a substrate, and inorganic phosphate, which is a resultant degradation product, was quantitated. In consideration of the solubility of test compounds, the test compounds were preliminarily treated with a hydrochloric acid solution (containing 50% DMSO, 1×10^−1 mol/L, pH 1). Each of the test compounds having different concentrations was added to the hydrochloric acid solution to thereby yield a 1,000—fold dilution, and thereafter, the diluted compound was allowed to stand for 15 minutes at room temperature. After these preliminary remedies, a 10 μL solution that had undergone the above preliminary remedies were added to 840 μL Tris-acetate buffer (40 mmol/L, pH 7.5, containing 2 mmol/L MgCl2, may be referred to as TE buffer) containing or not containing 20 mmol/L KCl. Subsequently, a 100 μL enzyme solution (5 μg protein) diluted with the TE buffer was added. Incubation was performed for 30 minutes at 37° C. Thereafter, a 50 μL ATP solution (40 mmol/L) which was dissolved in TE buffer not containing KCl was added to initiate enzyme reaction (total volume: 1 mL, ATP final concentration: 2 mmol/L). Incubation was performed for 30 minutes at 37° C. Subsequently, ice-cold 12% trichloroacetic acid (2 mL) was added, to thereby stop the enzyme reaction. A molybdenum reagent (1 mL, 3.75% ammonium molybdate/1.5 mol/L sulfuric acid) and butyl acetate (5 mL) were added, followed by mixing under vigorous shaking for 5 minutes. The absorption of the butyl acetate layer was measured at 310 nm. A standard curve was determined on the basis of absorption obtained through the similar procedure by use of KH2PO4 at different concentrations dissolved in 8% TCA solution, and inorganic phosphate content was calculated. Samples to be measured were prepared in duplicate. The measurements were averaged, and residual activity was obtained from the difference between the inorganic phosphate content as determined in a sample containing KCl and that as determined in a sample not containing KCl. Percentage inhibition activity was calculated with respect to the activity obtained from a control sample (DMSO), which was considered 100%. As the inhibitory potency of each test compound, IC50 values were computed and shown. All the test compounds were dissolved in dimethyl sulfoxide immediately before use.

[1] = tested on: gastric acid secreted under stimulation with histamine; assay: Gastric acid secretion inhibition action, histamine-stimulated, acute Fistula method; assay type: in vivo, Sprague-Dawley (SD) rats; conditions: SD rats, administered in the duodenum, histamine 8 mg/kg/h, total acid discharge at 3, 4 and 5 hours, Probit method; for ED50: Rattus norvegicus
Description: (Gastric Acid Secretion Inhibition Action)
(1) Test Animals Employed were Sprague-Dawley (SD) Rats (7 Weeks Old, Male) Purchased from Charles River Japan, Inc. Before the Test, the Rats Were Fed for 5 Days or More.
Each test drug was suspended in, or dissolved in, 0.5% sodium carboxymethylcellulose solution, whereby a suspension or solution was prepared so as to attain 2.5 mL/kg.
(2) Measurement of Gastric Acid Secretion
The amount of gastric acid secreted under stimulation with histamine was measured on the rats fasted for 18 hours by use of the acute Fistula method as described by Hiramatsu et al. (Dig. Dis. Sci.,39, 689-697(1994)). Briefly, each rat was etherized lightly, and then a winged tubular needle filled with 3.8% citric acid solution was indwelled in the tail vein of the rat. The abdomen of the rat was opened, and the pyloric part of the stomach was ligated. Subsequently, a small hole was made in the duodenum, and the abdomen of the rat was closed with a feeding tube filled with saline indwelled. The inside of the stomach was washed with saline, a polyethylene-made Fistula tube (inner diameter: 4 mm) was set in the anterior stomach, and the cut portion of the anterior stomach was ligated and secured. The stomach and the duodenum were returned to the abdominal cavity, with the Fistula tube and the feeding tube exposed outside. The rat was placed in a Ballman cage II. Histamine was continuously administered through the winged injection needle which had been indwelled in the tail vein in advance (8 mg/kg/h, 1.38 mL/h). 15 Minutes thereafter, gastric juice of the rat was collected. Subsequently, collection of gastric juice was performed every one hour. Each time, the amount of the collected gastric juice was recorded, followed by titration with NaOH (0.1 mol/L) up to the end point pH 7.0. From the volume consumed for titration, acidity was calculated. The acid discharge amount was calculated as a product of the amount of the gastric juice and the acidity. Before starting the test, the rats were grouped so that the intra-group total amount of the gastric juice samples initially collected was the same between groups. Thereafter, each test drug was administered (2.5 mL/kg) in the duodenum through a feeding tube which had been attached to the duodenum in advance. To each rat of a control group, 0.5% Na-CMC solution was administered.
(3) Analysis of the Results
The data as obtained above are shown by way of mean±standard error. Total amount of acid discharge was obtained through summation of the amounts of acid discharge at three points in time; i.e., 3, 4 and 5 hours after initial collection of gastric juice. Percent inhibition of each group was computed from the total acid discharge amount of the control group and that of each group. On the basis of the percent inhibition calculated for each group, 50% effective dose (ED50) was computed by use of the Probit method.

COc1c(OCCOCC(F)(F)F)ccnc1C[S+]([O-])c1nc2ccccc2[nH]1 (single isomer, unassigned; (+)) [Example 3(2), (+)-2-{3-methoxy-4-[2-(2,2,2-trifluoroethoxy)ethoxy]pyridin-2-yl-methylsulfinyl}-1H-benzimidazole]
IC50 (H+/K+-ATPase): 4.05 µmol/L | ED50 [1]: 2.2 mg/kg

COc1c(OCCCC(F)(F)F)ccnc1C[S+]([O-])c1nc2ccccc2[nH]1 (single isomer, unassigned; (-)) [Example 6(1), (−)-2-[3-methoxy-4-(4,4,4-trifluorobutoxy)pyridin-2-yl-methanesulfinyl]-1H-benzimidazole]
IC50 (H+/K+-ATPase): 2.5 µmol/L | Gastric-acid secretion inhibition action [ED50 (mg/kg)] [1]: 1.4 mg/kg

[O-][S+](Cc1cc(OCCCC(F)(F)F)ccn1)c1nc2ccccc2[nH]1 (single isomer, unassigned; (-)) [Example 10(2), (−)-2-[4-(4,4,4-trifluorobutoxy)pyridin-2-yl-methanesulfinyl]-1H-benzimidazole]
IC50 (H+/K+-ATPase): 3.03 µmol/L | ED50 [1]: 0.97 mg/kg

[O-][S+](Cc1cc(OCCOCC(F)(F)F)ccn1)c1nc2ccccc2[nH]1 (single isomer, unassigned; (-)) [Example 13(3), (−)-2-{4-[2-(2,2,2-trifluoroethoxy)ethoxy]pyridin-2-yl-methanesulfinyl}-1H-benzimidazole]
IC50 (H+/K+-ATPase): 7.37 µmol/L | ED50 [1]: 0.59 mg/kg

COc1c(OCCCC(F)(F)F)ccnc1C[S+]([O-])c1nc2ccccc2[nH]1 (stereo not drawn) [Example 1(2), 2-[3-methoxy-4-(4,4,4-trifluorobutoxy)pyridin-2-yl-methylsulfinyl]-1H-benzimidazole]
IC50 (H+/K+-ATPase): 4.16 µmol/L | ED50 [1]: 1.3 mg/kg

COc1c(OCCOCC(F)(F)F)ccnc1C[S+]([O-])c1nc2ccccc2[nH]1 (stereo not drawn) [Example 2(2), 2-{3-methoxy-4-[2-(2,2,2-trifluoroethoxy)ethoxy]pyridin-2-yl-methylsulfinyl}-1H-benzimidazole]
IC50 (H+/K+-ATPase): 3.37 µmol/L | ED50 [1]: 1.9 mg/kg

[O-][S+](Cc1cc(OCCCC(F)(F)F)ccn1)c1nc2ccccc2[nH]1 (stereo not drawn) [Example 9(3), 2-[4-(4,4,4-trifluorobutoxy)pyridin-2-yl-methanesulfinyl]-1H-benzimidazole]
IC50 (H+/K+-ATPase): 3.56 µmol/L | ED50 [1]: 0.32 mg/kg

COc1ccc2nc([S@@+]([O-])Cc3ncc(C)c(OC)c3C)[nH]c2c1 [esomeprazole, reference compound]
IC50 (H+/K+-ATPase): 2.06 µmol/L | ED50 [1]: 2.9 mg/kg

Cc1c(OCC(F)(F)F)ccnc1C[S+]([O-])c1nc2ccccc2[nH]1 (stereo not drawn) [lansoprazole, reference compound]
IC50 (H+/K+-ATPase): 1.61 µmol/L | ED50 [1]: 1.1 mg/kg

COc1ccc2[nH]c([S+]([O-])Cc3ncc(C)c(OC)c3C)nc2c1 (stereo not drawn) [omeprazole, reference compound]
IC50 (H+/K+-ATPase): 1.01 µmol/L | ED50 [1]: 3.6 mg/kg

COc1ccnc(C[S+]([O-])c2nc3ccc(OC(F)F)cc3[nH]2)c1OC (stereo not drawn) [pantoprazole, reference compound]
IC50 (H+/K+-ATPase): 5.46 µmol/L | ED50 [1]: 0.34 mg/kg

COCCCOc1ccnc(C[S+]([O-])c2nc3ccccc3[nH]2)c1C (stereo not drawn) [rabeprazole, reference compound]
IC50 (H+/K+-ATPase): 1.61 µmol/L | ED50 [1]: 2.5 mg/kg

Source: US6884810B2, “Benzimidazole derivatives” (Zeria Pharmaceutical Co., Ltd., priority 2001, dated 2005)
